US6608082B1, “Treatment of erectile dysfunction using isoquinoline compound melanocortin receptor ligands” (Lion Bioscience AG, priority 1998, dated 2003)

What was measured:
MCR-1 = target: T1, MCR-1 (Homo sapiens, UniProt Q01726); assay: Melanocortin receptor binding assay, competition with 125I-HP 467, HEK 293 cells expressing hMCR-1; conditions: TRG 2408 and TRG 2409 libraries; inhibition of 125I-HP 467 binding; read-out: MC-1 IC50
T1 construct: expressed in transfected cells; host or cells: HEK 293
T1 sequence (Q01726 whole entry): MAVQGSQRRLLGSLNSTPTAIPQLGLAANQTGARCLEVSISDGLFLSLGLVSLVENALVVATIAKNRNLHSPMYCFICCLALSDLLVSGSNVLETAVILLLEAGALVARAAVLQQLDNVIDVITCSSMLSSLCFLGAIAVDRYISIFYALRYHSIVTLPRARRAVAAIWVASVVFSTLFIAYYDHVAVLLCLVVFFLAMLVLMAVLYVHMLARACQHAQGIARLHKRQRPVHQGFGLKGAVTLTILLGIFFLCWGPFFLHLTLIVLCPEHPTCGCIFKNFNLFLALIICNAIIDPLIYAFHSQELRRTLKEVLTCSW
Method in brief: (§1)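 Intact-cell competition binding, 2.5 hr at 37 °C, in PBS/10% calf serum/1 mM CaCl2; hMCR-4 cells at 4×10^3 per tube, hMCR-1 cells at 2×10^4 per tube. Filtration on BSA/CaCl2-soaked GF/B, cold 50 mM Tris pH 7.4 washes, scintillation count.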

MCR-4 = target: T2, MCR-4 (Homo sapiens, UniProt P32245); assay: Melanocortin receptor binding assay, competition with 125I-HP 467, HEK 293 cells expressing hMCR-4; conditions: TRG 2408 and TRG 2409 libraries; inhibition of 125I-HP 467 binding; read-out: MC-4 IC50
T2 construct: expressed in transfected cells; host or cells: HEK 293
T2 sequence (P32245 whole entry): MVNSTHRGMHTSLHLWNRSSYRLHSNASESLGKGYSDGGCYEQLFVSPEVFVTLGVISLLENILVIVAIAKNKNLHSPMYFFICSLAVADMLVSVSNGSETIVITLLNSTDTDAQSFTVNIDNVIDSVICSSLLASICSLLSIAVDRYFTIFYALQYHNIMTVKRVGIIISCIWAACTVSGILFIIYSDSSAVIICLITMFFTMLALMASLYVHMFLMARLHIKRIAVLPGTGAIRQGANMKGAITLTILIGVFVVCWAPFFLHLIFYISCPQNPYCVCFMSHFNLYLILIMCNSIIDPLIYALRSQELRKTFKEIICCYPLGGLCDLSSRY
Method in brief: as §1

SMILES	IC50 (MCR-1)	IC50 (MCR-4)
CCNc1ccc(C2C(CNC3CCCCC3)c3ccccc3CN2CCCC(N)CN)cc1 (stereo not shown) [TRG 2408-61]	0.69 µM	35.2 µM
CCNc1ccc(C2C(CNC3CCCCC3)c3ccccc3CN2CCCC(CN)NCCN)cc1 (stereo not shown) [TRG 2408-63]	0.69 µM	18.7 µM
CCNc1ccc(C2C(CNC3CCCCC3)c3ccccc3CN2CCCC(CN)NCCNC)cc1 (stereo not shown) [TRG 2408-64]	2.67 µM	25 µM
CNC(CN)CCCN1Cc2ccccc2C(CNC2CCCCC2)C1c1ccc(Cl)cc1Cl (stereo not shown) [TRG 2408-70]	1.46 µM	2.5 µM
NCC(N)CCCN1Cc2ccccc2C(CNC2CCCCC2)C1c1ccc(Cl)cc1Cl (stereo not shown) [TRG 2408-71]	1.19 µM	3.03 µM
NC[C@H](CCCN1Cc2ccccc2C(CNC2CCCCC2)C1c1ccc(Cl)cc1Cl)NCCc1ccccc1 (stereo partly shown) [TRG 2408-72]	1.94 µM	5.87 µM
NCCNC(CN)CCCN1Cc2ccccc2C(CNC2CCCCC2)C1c1ccc(Cl)cc1Cl (stereo not shown) [TRG 2408-73]	1.08 µM	4.05 µM
CNCCNC(CN)CCCN1Cc2ccccc2C(CNC2CCCCC2)C1c1ccc(Cl)cc1Cl (stereo not shown) [TRG 2408-74]	1.56 µM	4.28 µM
CNC(CN)CCCN1Cc2ccccc2C(CNC2CCCCC2)C1c1ccc(-c2ccccc2)cc1 (stereo not shown) [TRG 2408-80]	2.18 µM	12.2 µM
NCC(N)CCCN1Cc2ccccc2C(CNC2CCCCC2)C1c1ccc(-c2ccccc2)cc1 (stereo not shown) [TRG 2408-81]	4.41 µM	18 µM
NCC(CCCN1Cc2ccccc2C(CNC2CCCCC2)C1c1ccc(-c2ccccc2)cc1)NCCc1ccccc1 (stereo not shown) [TRG 2408-82]	10.2 µM	16.4 µM
NCCNC(CN)CCCN1Cc2ccccc2C(CNC2CCCCC2)C1c1ccc(-c2ccccc2)cc1 (stereo not shown) [TRG 2408-83]	1.77 µM	11.1 µM
CNCCNC(CN)CCCN1Cc2ccccc2C(CNC2CCCCC2)C1c1ccc(-c2ccccc2)cc1 (stereo not shown) [TRG 2408-84]	2.5 µM	15.4 µM
CCNc1ccc(C2C(CNCc3ccccc3OC)c3ccccc3CN2CCC(CN)NCCN)cc1 (stereo not shown) [TRG 2408-89]	1.82 µM	21.7 µM
CCNc1ccc(C2C(CNC3CCCCC3)c3ccccc3CN2CC[C@@H](CN)NC)cc1 (stereo partly shown) [TRG 2408-90]	5.9 µM	25.2 µM
CCNc1ccc(C2C(CNC3CCCCC3)c3ccccc3CN2CCC(N)CN)cc1 (stereo not shown) [TRG 2408-91]	9.94 µM	28.1 µM
CCNc1ccc(C2C(CNC3CCCCC3)c3ccccc3CN2CCC(CN)NCCc2ccccc2)cc1 (stereo not shown) [TRG 2408-92]	4.51 µM	1.54 µM
CCNc1ccc(C2C(CNC3CCCCC3)c3ccccc3CN2CCC(CN)NCCN)cc1 (stereo not shown) [TRG 2408-93]	4.01 µM	16.3 µM
CCNc1ccc(C2C(CNC3CCCCC3)c3ccccc3CN2CCC(CN)NCCNC)cc1 (stereo not shown) [TRG 2408-94]	3.89 µM	27.1 µM
CNC(CN)CCN1Cc2ccccc2C(CNC2CCCCC2)C1c1ccc(Cl)cc1Cl (stereo not shown) [TRG 2408-100]	6.98 µM	6.1 µM
NCC(N)CCN1Cc2ccccc2C(CNC2CCCCC2)C1c1ccc(Cl)cc1Cl (stereo not shown) [TRG 2408-101]	7.89 µM	5.68 µM
NCCNC(CN)CCN1Cc2ccccc2C(CNC2CCCCC2)C1c1ccc(Cl)cc1Cl (stereo not shown) [TRG 2408-103]	5.41 µM	8.8 µM
CNCCNC(CN)CCN1Cc2ccccc2C(CNC2CCCCC2)C1c1ccc(Cl)cc1Cl (stereo not shown) [TRG 2408-104]	5.65 µM	9.06 µM
CNC(CN)CCN1Cc2ccccc2C(CNC2CCCCC2)C1c1ccc(-c2ccccc2)cc1 (stereo not shown) [TRG 2408-110]	5.37 µM	9.01 µM
NCC(CCN1Cc2ccccc2C(CNC2CCCCC2)C1c1ccc(-c2ccccc2)cc1)NCCc1ccccc1 (stereo not shown) [TRG 2408-112]	8.79 µM	10.4 µM
NCCNC(CN)CCN1Cc2ccccc2C(CNC2CCCCC2)C1c1ccc(-c2ccccc2)cc1 (stereo not shown) [TRG 2408-113]	3.78 µM	12.7 µM
